{"source": "patent US8334298B2", "about": "“Treatment or prevention of ovarian hyperstimulation syndrome (OHSS) using a dopamine agonist” (Ferring International Center S.A., priority 2005, dated 2012)", "key": {"OHSS rats": {"system": "OHSS rats", "assay": "Dose response of quinagolide on vascular permeability in OHSS rats (Example 4)", "assay_type": "in vivo, Wistar rats", "settings": "cabergoline 150 ug/kg oral (positive control); single rat; 48-56 h after hCG; listed as Cb", "procedure": "Inducing OHSS manifestations. A total of 96 female immature Wistar rats (Harlan Iberica, Sant Feliu de Codina, Barcelona, SPAIN), weighing from 42-48 grams at the beginning of these experiments (day 22), were used to carry out the studies disclosed in Examples 4 and 5. They were injected subcutaneously (s.c) with 10 IU of Pregnant Mare's Serum Gonadotropin (PMSG) (Sigma) for 4 consecutive days (days 22-25), followed by administered intraperitoneally (i.p.) with 30 IU of hCG on the fifth day (day 26) in order to induce OHSS clinical manifestations.\nMeasuring vascular permeability (VP). VP was used as an index to estimate and compare the degree of development of the illness. VP was measured in all animals 48-56 hours after hCG administration, following methodology previously described (Gomez et al., supra). Briefly, 0.2 ml Evans Blue dye, 0.05 M, was injected through the femoral vein. After 30 minutes, the peritoneal cavity was irrigated with 5 ml saline, pH 6, 22° C., and massaged for 30 seconds to recover extravasated dye. The peritoneal fluid was recovered in 13 ml tubes containing 0.1 ml NaOH. The tubes were centrifuged at 900×g for 12 minutes to avoid protein interference. The supernatant was filtered through 0.22 um filters in order to eliminate ascitic protein/fibrin mucus which could interfere in the posterior measurements. Finally the absorbance of the extravasated dye was measured at 595 nm using a spectrophotometer. Average and average deviations in each group (see below) were calculated. VP was expressed as μg extravasated Evans Blue dye/100 g body weight in each animal.\nA total of 70 rats were used for this study. All 70 rats were administered PMSG/hCG to induce OHSS symptoms, as described above. Quinagolide (batch no. 1010003004; supplied by Ferring Labs) was administered to 56 rats. The 56 rats that received quinagolide were used as a dose response test group. […] Cabergoline (Dostinex®) was administered to 6 rats as a positive control. The specific details of the dosing regimen for each group is as follows:\nVehicle control group (quinagolide 0 μg/kg) (n=8). Eight rats were implanted with prolactin placebo pellets, 5 days release, between 10:00 to 11:00 on day 26, just following hCG injection (see General Procedures, above). Six hours after pellet implantation, the rats in this group were orally administered vehicle solution (1:6 alcohol in water mixture) (without quinagolide). They received another oral vehicle administration of vehicle solution 24 hours later. Experimental groups (quinagolide at 0.1, 0.3, 1, 3, 10, 25, 50 μg/kg/day to 7 test groups of rats) (n=8 in each test group). The rats in these groups were implanted with prolactin pellets, 5 days release, between 10:00 to 11:00 on day 26, just following hCG injection (see General Procedures, above). […] In this manner, the desired 0.1, 0.3, 1, 3, 10, 25, 50 μg/kg doses to be assayed were achieved. Twenty four hours later, the rats in this group were administered with another dose of the same amounts of quinagolide. Positive (cabergoline) control group (n=6). These six rats were implanted with prolactin pellets, 5 days release, between 10:00 to 11:00 .m on day 26, just following hCG injection. […] Twenty four hours later, the rats in this group were administered with another dose of the same amount of cabergoline. […] Reconstitution and dilution process to reach appropriate quinagolide doses for oral administration. Appropriate doses were prepared fresh just prior to being administered (on day 26). A single quinagolide vial, containing approximately 2.30-2.30 mg quinagolide, was employed for each single set of animals. For each solution, approximately 2.30-2.30 mg quinagolide was diluted in a vehicle solution (1:6 alcohol:water mixture) to achieve a stock concentration of 100 μg quinagolide per ml solution. […]"}, "[1]": {"system": "women at risk of developing moderate-severe early OHSS", "assay": "Prospective, randomized, double blind study of cabergoline in oocyte donors at risk of OHSS (Example 6)", "assay_type": "in vivo", "procedure": "Materials and Methods. Example 5 is a prospective, randomized and double blind study of 54 oocyte donors in whom 20-30 follicles greater than 12 mm developed, and from whom more than 20 oocytes were retrieved. Immediately after hCG administration, patients were divided in two groups based on a computer randomization: 1) the study group (n=29) received 0.5 mg oral cabergoline daily for eight days; the control group (n=25) received one tablet of placebo for the same eight days. The patients were monitored every 48 hours from the day of hCG administration (day 0) up through day 8. The presence of ascites was defined as a pocket of peritoneal fluid greater than 9 cm^2, with the patient in litotomy position seen on vaginal ultrasound. Also, regular blood parameters and serum PRL levels were recorded."}}, "note": "“And” between values parts separate entries of the source, which are not always exact repeats. Identical values can stand only once."}
{"smiles": "C=CCN1C[C@H](C(=O)N(CCCN(C)C)C(=O)NCC)C[C@@H]2c3cccc4[nH]cc(c34)C[C@H]21", "note": "[Cabergoline, cabergoline]", "values": [{"measurement": "Absorbance at 595 nm", "setting": "OHSS rats", "value": "0.356 and 0.034 and 0.1 (2×) and 0.293"}, {"measurement": "μg EB per 100 g body weight", "setting": "OHSS rats", "value": "21.56 μg EB per 100 g body weight and 2.118 μg EB per 100 g body weight and 6.507 μg EB per 100 g body weight and 6.229 μg EB per 100 g body weight and 17.99 μg EB per 100 g body weight"}, {"measurement": "μg Evans Blue (Abs * 4360)", "setting": "OHSS rats", "value": "1552.16 μg and 148.24 μg and 436 μg (2×) and 1277.48 μg"}, {"measurement": "Haemoglobin day 4", "setting": "[1]; 0.5 mg oral cabergoline daily for eight days, n=29, mean ± SEM, p 0.006 vs control", "value": "12.7 ± 1.2", "unit": "g/dL"}, {"measurement": "Haemoglobin day 6", "setting": "[1]; 0.5 mg oral cabergoline daily for eight days, n=29, mean ± SEM, p 0.01 vs control", "value": "12.9 ± 1.2", "unit": "g/dL"}, {"measurement": "Free fluid area day 6", "setting": "[1]; 0.5 mg oral cabergoline daily for eight days, n=29, mean ± SEM, p 0.03 vs control", "value": "8.8 ± 1.7", "unit": "cm2"}, {"measurement": "Hematocrit day 6", "setting": "[1]; 0.5 mg oral cabergoline daily for eight days, n=29, mean ± SEM, p 0.04 vs control", "value": "38.9 ± 3.9", "unit": "%"}, {"measurement": "Ascites %", "setting": "[1]; 0.5 mg oral cabergoline daily for eight days, 7/29 patients, ascites = pocket of peritoneal fluid greater than 9 cm^2, p 0.01 vs control", "value": "24.1 7/29%"}, {"measurement": "Serum PRL levels", "setting": "[1]; 0.5 mg oral cabergoline daily, days 2, 4, 6 and 8 as compared to controls, p<0.0001", "value": "significantly lower"}]}
